Experimental data published in patent publication US20230398130A1, “METHODS AND COMPOSITIONS FOR DIFFERENTIATING STEM CELLS” (Massachusetts Institute of Technology, priority 2020, published 2023).

What was measured:
ISC-enriched organoids [1] = assay: Primary screen, 384-well 2.5-D organoid differentiation (ENR+CD, 6 days): basal lysozyme secretion (LYZ.NS); assay type: cell-based, murine; conditions: for Dose.FC.LYZ.NS (log 2 fold change, basal lysozyme secretion): vs plate median; for Dose.FC.LYZ.NS / Z.LYZ.NS: primary screen; for Dose.FC.LYZ.NS: ENR+CD 6 days, FC vs plate median; for Z.LYZ.NS: standard z score of FC
Text: (§1) High-throughput screening.

ISC-enriched organoids [2] = assay: Primary screen, 384-well 2.5-D organoid differentiation (ENR+CD, 6 days): carbachol-induced lysozyme secretion (LYZ.S); assay type: cell-based, murine; conditions: for Dose.FC.LYZ.S (log 2 fold change, carbachol-induced lysozyme secretion): vs plate median; for Dose.FC.LYZ.S: primary screen, ENR+CD 6 days, FC vs plate median
Text: as §1

ISC-enriched organoids [3] = assay: Primary screen, 384-well 2.5-D organoid differentiation (ENR+CD, 6 days, Target Selective Inhibitor Library, vs whole-plate median): ATP (CellTiter-Glo 3D, CTG); conditions: for Dose.FC.CTG (log 2 fold change, ATP): vs plate median; for Dose.FC.CTG / Z.CTG: primary screen; for Dose.FC.CTG: ENR+CD 6 days, FC vs plate median; for Z.CTG: standard z score of FC
[4] = dose 0.08 uM (1st of 4 lines per treatment; dose not printed in this part)
[5] = dose 0.40 uM (2nd of 4 lines per treatment; dose not printed in this part)
[6] = dose 2.00 uM (3rd of 4 lines per treatment; dose not printed in this part)
[7] = dose 10.00 uM (4th of 4 lines per treatment; dose not printed in this part)

Compound | Dose.FC.LYZ.NS (ISC-enriched organoids [1]; dose 0.08 uM) [log 2 fold change] | Z.LYZ.NS (ISC-enriched organoids [1]; dose 0.08 uM) | Dose.FC.LYZ.NS (ISC-enriched organoids [1]; dose 0.40 uM) [log 2 fold change] | Z.LYZ.NS (ISC-enriched organoids [1]; dose 0.40 uM) | Dose.FC.LYZ.NS (ISC-enriched organoids [1]; dose 2.00 uM) [log 2 fold change] | Z.LYZ.NS (ISC-enriched organoids [1]; dose 2.00 uM) | Dose.FC.LYZ.NS (ISC-enriched organoids [1]; dose 10.00 uM) [log 2 fold change] | Z.LYZ.NS (ISC-enriched organoids [1]; dose 10.00 uM) | Dose.FC.LYZ.S (ISC-enriched organoids [2]; dose 0.08 uM) [log 2 fold change] | Dose.FC.LYZ.S (ISC-enriched organoids [2]; dose 0.40 uM) [log 2 fold change] | Dose.FC.LYZ.S (ISC-enriched organoids [2]; dose 2.00 uM) [log 2 fold change] | Dose.FC.LYZ.S (ISC-enriched organoids [2]; dose 10.00 uM) [log 2 fold change] | Dose.FC.CTG (ISC-enriched organoids [3]; dose 0.08 uM) [log 2 fold change] | Z.CTG (ISC-enriched organoids [3]; dose 0.08 uM) | Dose.FC.CTG (ISC-enriched organoids [3]; dose 0.40 uM) [log 2 fold change] | Z.CTG (ISC-enriched organoids [3]; dose 0.40 uM) | Dose.FC.CTG (ISC-enriched organoids [3]; dose 2.00 uM) [log 2 fold change] | Z.CTG (ISC-enriched organoids [3]; dose 2.00 uM) | Dose.FC.CTG (ISC-enriched organoids [3]; dose 10.00 uM) [log 2 fold change] | Z.CTG (ISC-enriched organoids [3]; dose 10.00 uM) | also measured
Cl.Cl.Cl.O[C@@H](COc1cccc2ncccc12)CN1CCN([C@@H]2c3ccccc3[C@@H]3[C@H](c4ccccc42)C3(F)F)CC1 [Zosuquidar (LY335979) 3HCl] | – | – | – | – | – | – | – | – | – | – | – | – | – | – | – | – | – | – | – | – | Z.LYZ.NS (standard z score) (ISC-enriched organoids [1]; dose 0.08 uM): 0.839; Dose.FC.LYZ.NS (log 2 fold change, basal lysozyme secretion) (ISC-enriched organoids [1]; dose 0.08 uM): 0.096; Z.LYZ.NS (standard z score) (ISC-enriched organoids [1]; dose 0.40 uM): 0.696; Dose.FC.LYZ.NS (log 2 fold change, basal lysozyme secretion) (ISC-enriched organoids [1]; dose 0.40 uM): 0.080; Z.LYZ.NS (standard z score) (ISC-enriched organoids [1]; dose 2.00 uM): 1.802; Dose.FC.LYZ.NS (log 2 fold change, basal lysozyme secretion) (ISC-enriched organoids [1]; dose 2.00 uM): 0.207; Z.LYZ.NS (standard z score) (ISC-enriched organoids [1]; dose 10.00 uM): −1.821; Dose.FC.LYZ.NS (log 2 fold change, basal lysozyme secretion) (ISC-enriched organoids [1]; dose 10.00 uM): −0.209; Dose.FC.LYZ.S (log 2 fold change, carbachol-induced lysozyme secretion) (ISC-enriched organoids [2]; dose 0.08 uM): 0.124; Dose.FC.LYZ.S (log 2 fold change, carbachol-induced lysozyme secretion) (ISC-enriched organoids [2]; dose 0.40 uM): 0.127; Dose.FC.LYZ.S (log 2 fold change, carbachol-induced lysozyme secretion) (ISC-enriched organoids [2]; dose 2.00 uM): 0.129; Dose.FC.LYZ.S (log 2 fold change, carbachol-induced lysozyme secretion) (ISC-enriched organoids [2]; dose 10.00 uM): −0.200; Z.CTG (standard z score) (ISC-enriched organoids [3]; dose 0.08 uM): 0.041; Dose.FC.CTG (log 2 fold change, ATP) (ISC-enriched organoids [3]; dose 0.08 uM): 0.017; Z.CTG (standard z score) (ISC-enriched organoids [3]; dose 0.40 uM): 0.470; Dose.FC.CTG (log 2 fold change, ATP) (ISC-enriched organoids [3]; dose 0.40 uM): 0.197; Z.CTG (standard z score) (ISC-enriched organoids [3]; dose 2.00 uM): 0.659; Dose.FC.CTG (log 2 fold change, ATP) (ISC-enriched organoids [3]; dose 2.00 uM): 0.276; Z.CTG (standard z score) (ISC-enriched organoids [3]; dose 10.00 uM): −0.461; Dose.FC.CTG (log 2 fold change, ATP) (ISC-enriched organoids [3]; dose 10.00 uM): −0.193
(−)-MK 801 Maleate | 0.008 | 0.072 | −0.099 | −0.864 | −0.256 | −2.227 | −0.259 | −2.255 | 0.015 | −0.179 | −0.334 | −0.403 | 0.127 | 0.303 | −0.377 | −0.899 | −0.702 | −1.677 | −0.936 | −2.236 | SSMD.LYZ.NS_Rep (strictly standardized mean difference) (ISC-enriched organoids [1]; [4]): 0.070; SSMD.LYZ.NS_Rep (strictly standardized mean difference) (ISC-enriched organoids [1]; [5]): −0.550; SSMD.LYZ.NS_Rep (strictly standardized mean difference) (ISC-enriched organoids [1]; [6]): −1.315; SSMD.LYZ.NS_Rep (strictly standardized mean difference) (ISC-enriched organoids [1]; [7]): −1.708; SSMD.LYZ.S_Rep (strictly standardized mean difference) (ISC-enriched organoids [2]; [4]): 0.116; Z.LYZ.S (standard z score) (ISC-enriched organoids [2]; [4]): 0.099; SSMD.LYZ.S_Rep (strictly standardized mean difference) (ISC-enriched organoids [2]; [5]): −0.976; Z.LYZ.S (standard z score) (ISC-enriched organoids [2]; [5]): −1.159; SSMD.LYZ.S_Rep (strictly standardized mean difference) (ISC-enriched organoids [2]; [6]): −1.187; Z.LYZ.S (standard z score) (ISC-enriched organoids [2]; [6]): −2.160; SSMD.LYZ.S_Rep (strictly standardized mean difference) (ISC-enriched organoids [2]; [7]): −1.768; Z.LYZ.S (standard z score) (ISC-enriched organoids [2]; [7]): −2.604; SSMD.CTG_Rep (strictly standardized mean difference) (ISC-enriched organoids [3]; [4]): 0.442; SSMD.CTG_Rep (strictly standardized mean difference) (ISC-enriched organoids [3]; [5]): −1.342; SSMD.CTG_Rep (strictly standardized mean difference) (ISC-enriched organoids [3]; [6]): −1.102; SSMD.CTG_Rep (strictly standardized mean difference) (ISC-enriched organoids [3]; [7]): −1.696
BAM7 | 0.045 | 0.391 | −0.009 | −0.082 | 0.057 | 0.498 | −0.007 | −0.063 | 0.079 | 0.039 | 0.019 | −0.020 | 0.209 | 0.498 | −0.010 | −0.024 | −0.156 | −0.373 | −0.114 | −0.272 | –
